Data on five molecules can be found in PMC8308925 (Pharmaceuticals, 2021).

≈ marks a conversion by molar mass, not a printed value. Read-outs that look alike come from different tables or passages of the source.

Data set [1] deals with T1, OATP1B3 (Homo sapiens, UniProt Q9NPD5).
T1 sequence (Q9NPD5 1-702): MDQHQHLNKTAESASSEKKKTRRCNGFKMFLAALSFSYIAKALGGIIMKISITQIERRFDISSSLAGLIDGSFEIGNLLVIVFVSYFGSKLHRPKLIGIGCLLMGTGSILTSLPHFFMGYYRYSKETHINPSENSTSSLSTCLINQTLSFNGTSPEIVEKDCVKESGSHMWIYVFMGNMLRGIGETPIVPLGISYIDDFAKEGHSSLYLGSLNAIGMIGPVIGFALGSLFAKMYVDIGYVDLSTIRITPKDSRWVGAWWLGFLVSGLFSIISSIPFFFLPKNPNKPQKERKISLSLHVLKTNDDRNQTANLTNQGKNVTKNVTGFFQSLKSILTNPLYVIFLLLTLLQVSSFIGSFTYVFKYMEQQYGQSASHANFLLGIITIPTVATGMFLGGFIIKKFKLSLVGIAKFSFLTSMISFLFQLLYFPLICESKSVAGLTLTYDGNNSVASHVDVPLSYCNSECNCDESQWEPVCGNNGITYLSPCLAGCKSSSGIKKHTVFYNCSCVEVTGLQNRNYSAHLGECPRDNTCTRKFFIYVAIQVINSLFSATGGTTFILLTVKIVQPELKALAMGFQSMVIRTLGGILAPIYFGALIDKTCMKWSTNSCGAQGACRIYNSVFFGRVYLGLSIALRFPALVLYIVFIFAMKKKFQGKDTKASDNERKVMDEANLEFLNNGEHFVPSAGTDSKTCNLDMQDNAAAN
The experiment in a line: in vitro. How it is done:
(§1) For the experiments, 0.8 × 10^5 cells per well were seeded in poly-D-lysine coated 24-well plates, except for HEK293-ASBT cells, where 1 × 10^5 cells per well were seeded in poly-D-lysine coated 24-well plates. After incubation for 48 h, the medium was removed and the cells were washed with DPBS and preincubated for 10 min in DPBS at 37 °C.
(§2) Cells were disintegrated in 150 µL of 70% acetonitrile containing internal standard (IS; 200 nM of chenodeoxycholic acid). The cells were sonicated for 3 s and centrifuged at 13,000 rpm for 10 min. An aliquot (5 µL) from the supernatant (100 µL) was injected into LC-MS/MS system.
(§3) The sample preparation method is as stated above.
(§4) Vmax represents the maximum velocity at saturating substrate concentration, [S] represents the substrate concentration, Km represents the substrate concentration at half Vmax, and CLdiffusion represents the passive diffusion clearance.

The next data set has as its target T2, NTCP (Homo sapiens, UniProt Q14973).
T2 sequence (Q14973 1-349): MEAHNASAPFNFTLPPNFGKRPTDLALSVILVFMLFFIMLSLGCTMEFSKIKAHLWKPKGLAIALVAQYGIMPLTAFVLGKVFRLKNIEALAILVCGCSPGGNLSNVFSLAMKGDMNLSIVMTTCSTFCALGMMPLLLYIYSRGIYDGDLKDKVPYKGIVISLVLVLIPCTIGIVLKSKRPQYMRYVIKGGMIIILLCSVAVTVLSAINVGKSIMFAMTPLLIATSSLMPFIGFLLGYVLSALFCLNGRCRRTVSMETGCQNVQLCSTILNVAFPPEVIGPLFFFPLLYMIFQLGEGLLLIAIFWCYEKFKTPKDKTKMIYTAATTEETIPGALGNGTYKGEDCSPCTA
The experiment in a line: Uptake of MT921 and probe substrate in HEK 293-NTCP cells (substrate specificity, kinetics). On the procedure: as §1, §2, §3, §4

The target of data set [2] is T3, ASBT (Homo sapiens, UniProt Q12908).
T3 sequence (Q12908 1-348): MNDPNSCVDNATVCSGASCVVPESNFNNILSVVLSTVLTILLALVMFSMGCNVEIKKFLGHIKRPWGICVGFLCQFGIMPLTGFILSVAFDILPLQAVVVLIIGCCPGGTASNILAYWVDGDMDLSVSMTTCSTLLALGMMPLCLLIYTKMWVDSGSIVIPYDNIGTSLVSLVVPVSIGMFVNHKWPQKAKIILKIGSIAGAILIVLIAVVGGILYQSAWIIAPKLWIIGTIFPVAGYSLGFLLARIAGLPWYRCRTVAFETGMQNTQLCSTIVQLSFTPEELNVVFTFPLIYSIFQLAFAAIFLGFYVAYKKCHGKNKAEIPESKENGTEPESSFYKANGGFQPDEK
The experiment in a line: Uptake of MT921 and probe substrate in HEK 293-ASBT cells (substrate specificity, kinetics). Type of data set: in vitro ADME. Conditions: ASBT-mediated MT921 uptake, 5–100 µM. How it is done:
as §1, §2, §3, §4

The target of data set [3] is T1, OATP1B3.
The target in another data set is T4, OATP1B1 (Homo sapiens, UniProt Q9Y6L6).
T4 sequence (Q9Y6L6 1-691): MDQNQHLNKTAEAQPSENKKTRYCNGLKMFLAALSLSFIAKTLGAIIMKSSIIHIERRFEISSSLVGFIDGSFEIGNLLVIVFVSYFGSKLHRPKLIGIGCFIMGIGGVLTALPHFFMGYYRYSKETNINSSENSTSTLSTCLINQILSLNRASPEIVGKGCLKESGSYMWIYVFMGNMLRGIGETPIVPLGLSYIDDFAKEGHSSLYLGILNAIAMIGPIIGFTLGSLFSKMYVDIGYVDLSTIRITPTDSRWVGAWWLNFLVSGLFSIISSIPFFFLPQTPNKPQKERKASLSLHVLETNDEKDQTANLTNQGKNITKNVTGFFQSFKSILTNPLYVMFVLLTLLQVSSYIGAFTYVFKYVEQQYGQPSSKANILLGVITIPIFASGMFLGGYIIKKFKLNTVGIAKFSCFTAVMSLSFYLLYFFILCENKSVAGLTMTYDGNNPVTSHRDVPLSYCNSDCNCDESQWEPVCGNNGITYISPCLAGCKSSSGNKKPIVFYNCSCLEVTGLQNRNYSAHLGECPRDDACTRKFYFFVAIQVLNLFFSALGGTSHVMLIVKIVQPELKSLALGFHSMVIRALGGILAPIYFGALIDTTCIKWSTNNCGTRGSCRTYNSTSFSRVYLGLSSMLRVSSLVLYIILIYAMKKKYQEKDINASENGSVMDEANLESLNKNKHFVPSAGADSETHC
The experiment in a line: in vitro.

For data set [4] the following is noted: cited from earlier work.
For data set [5] the following is noted: amlodipine PBPK model parameter, cited from earlier work.
The target of data set [6] is T3, ASBT. The settings on record: inhibition of ASBT, implemented in DDI model; ref [61]; cited from earlier work.
Substrate in data set [7]: C[C@H](CCC(=O)O)[C@H]1CC[C@H]2[C@@H]3[C@H](O)C[C@@H]4C[C@H](O)CC[C@]4(C)[C@H]3C[C@H](O)[C@]12C
The experiment in a line: cells, lysate or membranes named. Conditions: other: OAT3-mediated MT921 uptake, 5–300 µM, modified Michaelis–Menten fit; 37.0 °C.

[8] abbreviates: Literature, ref [33] (supplement list).

One may read the Km as the concentration of substrate that gives half-maximal velocity. Broadly, the IC50 is the concentration at which inhibition is half-maximal. Read a low IC50 as greater potency in that assay. What is called Ki is the dissociation constant of the complex between target and ligand, obtained from inhibition or displacement. What is called Solubility is the concentration that dissolves in the medium under given conditions.

Regarding `C[C@]12CC[C@@H]3c4ccc(O)cc4CC[C@H]3[C@@H]1CC[C@@H]2O[C@@H]1O[C@H](C(=O)O)[C@@H](O)[C@H](O)[C@H]1O`, the “Increase of probe substrate uptake rate in transporter-expressing cells compared to mock cells” value on OATP1B3 [1] (0.06 µM probe substrate, HEK 293-OATP1B3) stood at 9.6 fold.
Regarding `C[C@H](CCC(=O)O)[C@H]1CC[C@H]2[C@@H]3[C@H](O)C[C@@H]4C[C@H](O)CC[C@]4(C)[C@H]3C[C@H](O)[C@]12C` [MT921, cholic acid], the Vmax on NTCP (NTCP-mediated MT921 uptake, 5–100 µM) worked out at 409.28 pmol/mg protein/min; on ASBT [2], 302.31 pmol/mg protein/min. Besides, at NTCP (passive diffusion clearance, HEK 293-NTCP), the CLdiffusion was 1.27 µL/mg protein/min. The Km at OATP1B3 [1] (OATP1B3-mediated MT921 uptake, 5–100 µM, modified Michaelis–Menten fit) is 27.4 µM. In addition, the “intrinsic clearance (Vmax/Km)” value at OATP1B3 [1] (human) was 3.46 µL/mg protein/min. In addition, the Km at 10 min at OATP1B3 [1] (human, Km, OATP1B3-mediated MT921 uptake, 5–100 µM, modified Michaelis–Menten fit) came to 27.4 µM. On OATP1B3 [3], this molecule yielded an IC50 of 38.3 µM. For the same molecule, the inhibition constant Ki on OATP1B3 [3] was 38.2 µM. Also, on OATP1B1, the IC50 at 5 min was 63.2 µM.
For the molecule `C[C@H](CCC(=O)NCCS(=O)(=O)O)[C@H]1CC[C@H]2[C@@H]3[C@H](O)C[C@@H]4C[C@H](O)CC[C@]4(C)[C@H]3C[C@H](O)[C@]12C` [[^3H]taurocholate], on NTCP (0.8 µM probe substrate, HEK 293-NTCP), the “Increase of probe substrate uptake rate in transporter-expressing cells compared to mock cells” value was determined as 102.1 fold.
As for `CCOC(=O)C1=C(COCCN)NC(C)=C(C(=O)OC)C1c1ccccc1Cl` (stereo not drawn) [amlodipine], the “Cmax Obs” value is 1.94 ng/mL in data set [4] (2.5 mg po (tab), sd, ref [28] (supplement list)); 3.56 ng/mL in data set [4] (5 mg po (tab), sd, first line of the study, ref [27] (supplement list)); 2.36 ng/mL in data set [4] (5 mg po (tab), sd, ref [17] (supplement list)); 3.18 ng/mL in [4] (5 mg po (tab), sd, ref [20] (supplement list)); 2.44 ng/mL in data set [4] (5 mg po (tab), sd, ref [23] (supplement list)); 2.54 ng/mL in data set [4] (5 mg po (tab), sd, ref [25] (supplement list)). Moreover, the “Cmax Obs” value in [4] (5 mg po (tab), sd, ref [30] (supplement list)) was 3.07 ng/mL; in data set [4] (5 mg po (tab), sd, second line of the study, ref [27] (supplement list)), 3.64 ng/mL; in data set [4] (10 mg po (tab), md, ref [16] (supplement list)) it was 18.77 ng/mL; in data set [4] (10 mg po (tab), md, ref [21] (supplement list)), 18.73 ng/mL; in data set [4] (10 mg po (tab), sd, first line of the study, ref [22] (supplement list)), 5.32 ng/mL; in data set [4] (10 mg po (tab), sd, ref [17] (supplement list)) it was 5.13 ng/mL. The “Cmax Obs” value in [4] (10 mg po (tab), sd, ref [18] (supplement list)) is 5.51 ng/mL; in [4] (10 mg po (tab), sd, ref [19] (supplement list)), 5.40 ng/mL; in data set [4] (10 mg po (tab), sd, ref [20] (supplement list)) it was 6.85 ng/mL; in data set [4] (10 mg po (tab), sd, ref [24] (supplement list)), 8.13 ng/mL; in data set [4] (10 mg po (tab), sd, ref [26] (supplement list)) it was 6.41 ng/mL; in data set [4] (10 mg po (tab), sd, ref [29] (supplement list)) it was 4.92 ng/mL. Besides, in data set [4] (10 mg po (tab), sd, second line of the study, ref [22] (supplement list)), the “Cmax Obs” value was 4.37 ng/mL. Moreover, in [5] (setting [8]), the Fraction unbound was 0.07. Besides, the “Log P” value in data set [5] (setting [8]) is on record as 3.43 Log units. Besides, the Solubility in [5] (extracted from published literature, no reference given) was 75.3 µg/mL (≈ 184 µM). For the same molecule, on ASBT [6], the Ki was 42.1 µM.

B1: OAT3 (Homo sapiens) (protein)
chain: MTFSEILDRVGSMGHFQFLHVAILGLPILNMANHNLLQIFTAATPVHHCRPPHNASTGPWVLPMGPNGKPERCLRFVHPPNASLPNDTQRAMEPCLDGWVYNSTKDSIVTEWDLVCNSNKLKEMAQSIFMAGILIGGLVLGDLSDRFGRRPILTCSYLLLAASGSGAAFSPTFPIYMVFRFLCGFGISGITLSTVILNVEWVPTRMRAIMSTALGYCYTFGQFILPGLAYAIPQWRWLQLTVSIPFFVFFLSSWWTPESIRWLVLSGKSSKALKILRRVAVFNGKKEEGERLSLEELKLNLQKEISLAKAKYTASDLFRIPMLRRMTFCLSLAWFATGFAYYSLAMGVEEFGVNLYILQIIFGGVDVPAKFITILSLSYLGRHTTQAAALLLAGGAILALTFVPLDLQTVRTVLAVFGKGCLSSSFSCLFLYTSELYPTVIRQTGMGVSNLWTRVGSMVSPLVKITGEVQPFIPNIIYGITALLGGSAALFLPETLNQPLPETIEDLENWSLRAKKPKQEPEVEKASQRIPLQPHGPGLGSS
Consider B1, for which, in [7], the Km stood at 133.33 µM and the Vmax/Km was 1.28 µL/mg protein/min.
